Like-named read-outs stand apart in the source and are kept apart here. Starred links: 1 amine or outer side, 2 acyl side, 3 side chain; linkers in the order of their positions; H or OH if unused. Positions of bridges follow the written chain, without caps; N, C: chain ends. Non-standard residues stand in square brackets, D forms with d. Residues, ends and D or L forms follow the SMILES beside them. *: point of attachment. Bip(4'-NHCO-C6H4-4-CH2COOH) = N[C@@H](Cc1ccc(-c2ccc(NC(=O)c3ccc(CC(=O)O)cc3)cc2)cc1)C(=O)O; dArg(Nω-CH2C6H4-3-CH2Gua) = N=C(N)NCc1cccc(CNC(=N)NCCC[C@@H](N)C(=O)O)c1; Bip(4'-NH) = O=C([C@H](Cc1ccc(-c2ccc(N[*:3])cc2)cc1)N[*:1])[*:2]; Indazole3carbonyl(1-CH2COOH) = O=C(O)Cn1nc(C(=O)*)c2ccccc21; Bip(4'-COOH) = N[C@@H](Cc1ccc(-c2ccc(C(=O)O)cc2)cc1)C(=O)O; Bip(4'-NHAc) = CC(=O)Nc1ccc(-c2ccc(C[C@H](N)C(=O)O)cc2)cc1; X19 = N=C(NCCC[C@@H](N[*:1])C(=O)[*:2])NCc1ccc2ccccc2c1; Ala(morpholin-4-yl) = N[C@@H](CN1CCOCC1)C(=O)O; Benzoyl(3-OCH2COOH) = O=C(O)COc1cccc(C(=O)*)c1; Phe(3-CONH2) = NC(=O)c1cccc(C[C@H](N)C(=O)O)c1; Bip = N[C@@H](Cc1ccc(-c2ccccc2)cc1)C(=O)O; Val(3-OH) = CC(C)(O)[C@H](N)C(=O)O; 2Pal = N[C@@H](Cc1ccccn1)C(=O)O; 3Pal = N[C@@H](Cc1cccnc1)C(=O)O; 2Thi = N[C@@H](Cc1cccs1)C(=O)O; Cha = N[C@@H](CC1CCCCC1)C(=O)O; d(αMeP) = C[C@]1(C(=O)O)CCCN1; Chg = N[C@H](C(=O)O)C1CCCCC1; Tle = CC(C)(C)[C@H](N)C(=O)O; Aze = O=C(O)[C@@H]1CCN1; Sar = CNCC(=O)O
Target: TNFα (Homo sapiens, UniProt P01375)
Assay: TNF-Induced HEK-Blue Assay
Assay type: cell-based
[1] = HEK-Blue-CD40L cells, NF-kB-driven secreted alkaline phosphatase reporter, TNFα 0.5 ng/ml, 18 h, read-out: TNF induced HEK-Blue assay IC50 value

Chain of TNFα (P01375 77-233 limits assumed): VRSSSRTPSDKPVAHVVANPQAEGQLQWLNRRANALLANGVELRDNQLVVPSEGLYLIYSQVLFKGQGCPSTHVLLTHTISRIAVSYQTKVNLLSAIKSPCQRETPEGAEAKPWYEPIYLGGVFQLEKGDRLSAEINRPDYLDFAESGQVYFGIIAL

Row | Structure (SMILES) | IC50 [1] | IC50
1 | CC(C)C[C@@H]1NC(=O)[C@H](Cc2cnc[nH]2)NC(=O)[C@H](C(C)C)NC(=O)[C@@H]2CCCN2C(=O)[C@H](C(C)C)NC(=O)[C@@H](CCCNC(=N)N)NC(=O)[C@H](CC(=O)O)NC(=O)[C@H](Cc2cnc[nH]2)NC(=O)CN(C)C(=O)[C@H](Cc2ccc(-c3ccc(NC(=O)c4ccc(CC(=O)O)cc4)cc3)cc2)NC(=O)[C@H](Cc2ccc(-c3ccccc3)cc2)NC(=O)[C@H](CC2CCCCC2)NC(=O)CSC[C@@H](C(=O)NCC(N)=O)NC1=O [Example 526] ({CH2CO}-[Cha][Bip][Bip(4'-NHCO-C6H4-4-CH2COOH)][Sar]HD[dR]VPVHLCG-NH2; thioether N-13) | < 0.05 µM | –
2 | CC(C)C[C@@H]1NC(=O)[C@H](CCCNC(=N)N)NC(=O)[C@H](C(C)C)NC(=O)[C@@H]2CCCN2C(=O)[C@H](Cc2cccnc2)NC(=O)[C@H](CCCNC(=N)N)NC(=O)[C@H](CC(=O)O)NC(=O)[C@H](Cc2ccc(O)cc2)NC(=O)CN(C)C(=O)[C@H](Cc2ccc(-c3ccccc3)cc2)NC(=O)[C@H](Cc2ccc(-c3ccccc3)cc2)NC(=O)[C@H](CN2CCOCC2)NC(=O)CSC[C@@H](C(=O)NCC(N)=O)NC1=O [Example 114] ({CH2CO}-[Ala(morpholin-4-yl)][Bip][Bip][Sar]YDR[3Pal]PVRLCG-NH2; thioether N-13) | 0.2 to 2 µM | –
3 | CC(C)C[C@@H]1NC(=O)[C@H](CCCNC(=N)N)NC(=O)[C@H](C(C)C)NC(=O)[C@@H]2CCCN2C(=O)[C@H](C(C)C)NC(=O)[C@@H](CCCNC(=N)NCc2ccc3ccccc3c2)NC(=O)[C@H](CC(=O)O)NC(=O)[C@@H]2CCCN2C(=O)CN(C)C(=O)[C@H](Cc2ccc(-c3ccc(NC(=O)c4nn(CC(=O)O)c5ccccc45)cc3)cc2)NC(=O)[C@H](Cc2ccc(-c3ccccc3)cc2)NC(=O)[C@H](CN2CCOCC2)NC(=O)CSC[C@@H](C(=O)NCC(N)=O)NC1=O [Example 468] ({CH2CO}-[Ala(morpholin-4-yl)][Bip][Bip(4'-NH)](Indazole3carbonyl(1-CH2COOH))[Sar]PD[X19]VPVRLCG-NH2; thioether N-13) | – | < 0.05 µM
4 | CC(=O)Nc1ccc(-c2ccc(C[C@@H]3NC(=O)[C@H](Cc4ccc(-c5ccc(C(=O)O)cc5)cc4)NC(=O)[C@H](CN4CCOCC4)NC(=O)CSC[C@@H](C(=O)NCC(N)=O)NC(=O)[C@H](CC(C)C)NC(=O)[C@H](Cc4cccc(C(N)=O)c4)NC(=O)[C@H](C(C)C)NC(=O)[C@@H]4CCCN4C(=O)[C@H](C(C)C)NC(=O)[C@@H](CCCNC(=N)N)NC(=O)[C@H](CC(=O)O)NC(=O)[C@H](Cc4ccccc4)NC(=O)CN(C)C3=O)cc2)cc1 [Example 458] ({CH2CO}-[Ala(morpholin-4-yl)][Bip(4'-COOH)][Bip(4'-NHAc)][Sar]FD[dR]VPV[Phe(3-CONH2)]LCG-NH2; thioether N-13) | < 0.05 µM | –
5 | CC[C@H](C)[C@@H]1NC(=O)[C@@H](CCCNC(=N)N)NC(=O)[C@H](CC(=O)O)NC(=O)[C@H](Cc2cnc[nH]2)NC(=O)CN(C)C(=O)[C@H](Cc2ccc(-c3ccc(NC(C)=O)cc3)cc2)NC(=O)[C@H](Cc2ccc(-c3ccccc3)cc2)NC(=O)[C@H](CN2CCOCC2)NC(=O)CSC[C@@H](C(=O)NCC(N)=O)NC(=O)[C@H](CC(C)C)NC(=O)[C@H](Cc2cnc[nH]2)NC(=O)[C@H](C(C)C)NC(=O)[C@@H]2CCCN2C1=O [Example 238] ({CH2CO}-[Ala(morpholin-4-yl)][Bip][Bip(4'-NHAc)][Sar]HD[dR]IPVHLCG-NH2; thioether N-13) | < 0.05 µM | –
6 | CC(C)C[C@@H]1NC(=O)[C@H](Cc2ccc(O)cc2)NC(=O)[C@H](C(C)C)NC(=O)[C@@H]2CCCN2C(=O)[C@H](C(C)C)NC(=O)[C@@H](CCCNC(=N)NCc2cccc(CNC(=N)N)c2)NC(=O)[C@H](CC(=O)O)NC(=O)[C@@H]2CCCN2C(=O)CN(C)C(=O)[C@H](Cc2ccc(-c3ccc(NC(=O)c4nn(CC(=O)O)c5ccccc45)cc3)cc2)NC(=O)[C@H](Cc2ccc(-c3ccccc3)cc2)NC(=O)[C@H](CN2CCOCC2)NC(=O)CSC[C@@H](C(=O)NCC(N)=O)NC1=O [Example 622] ({CH2CO}-[Ala(morpholin-4-yl)][Bip][Bip(4'-NH)](Indazole3carbonyl(1-CH2COOH))[Sar]PD[dArg(Nω-CH2C6H4-3-CH2Gua)]VPVYLCG-NH2; thioether N-13) | – | < 0.05 µM
7 | CC(=O)Nc1ccc(-c2ccc(C[C@@H]3NC(=O)[C@H](Cc4ccc(-c5ccccc5)cc4)NC(=O)[C@H](CN4CCOCC4)NC(=O)CSC[C@@H](C(=O)NCC(N)=O)NC(=O)[C@H](CC(C)C)NC(=O)[C@H](Cc4cccc(C(N)=O)c4)NC(=O)[C@H](C(C)C)NC(=O)[C@@H]4CCCN4C(=O)[C@H](C(C)C)NC(=O)[C@@H](CCCNC(=N)N)NC(=O)[C@H](CC(=O)O)NC(=O)[C@@H]4CCCN4C(=O)CN(C)C3=O)cc2)cc1 [Example 311] ({CH2CO}-[Ala(morpholin-4-yl)][Bip][Bip(4'-NHAc)][Sar]PD[dR]VPV[Phe(3-CONH2)]LCG-NH2; thioether N-13) | 0.05 to 0.2 µM | –
8 | CC(=O)Nc1ccc(-c2ccc(C[C@@H]3NC(=O)[C@H](Cc4ccc(-c5ccccc5)cc4)NC(=O)[C@H](CN4CCOCC4)NC(=O)CSC[C@@H](C(=O)NCC(N)=O)NC(=O)[C@H](CC(C)C)NC(=O)[C@H](Cc4cnc[nH]4)NC(=O)[C@H](C(C)C)NC(=O)[C@@H]4CCN4C(=O)[C@H](C(C)C)NC(=O)[C@@H](CCCNC(=N)N)NC(=O)[C@H](CC(=O)O)NC(=O)[C@H](Cc4ccc(O)cc4)NC(=O)CN(C)C3=O)cc2)cc1 [Example 273] ({CH2CO}-[Ala(morpholin-4-yl)][Bip][Bip(4'-NHAc)][Sar]YD[dR]V[Aze]VHLCG-NH2; thioether N-13) | < 0.05 µM | –
9 | CC(C)C[C@@H]1NC(=O)[C@H](Cc2ccc(O)cc2)NC(=O)[C@H](C2CCCCC2)NC(=O)[C@@H]2CCCN2C(=O)[C@H](C(C)C)NC(=O)[C@@H](CCCNC(=N)N)NC(=O)[C@H](CC(=O)O)NC(=O)[C@@H]2CCCN2C(=O)CN(C)C(=O)[C@H](Cc2ccc(-c3ccccc3)cc2)NC(=O)[C@H](Cc2ccc(-c3ccccc3)cc2)NC(=O)[C@H](CN2CCOCC2)NC(=O)CSC[C@@H](C(=O)NCC(N)=O)NC1=O [Example 209] ({CH2CO}-[Ala(morpholin-4-yl)][Bip][Bip][Sar]PD[dR]VP[Chg]YLCG-NH2; thioether N-13) | 0.2 to 2 µM | –

More lines, main results first:

Row | IC50 [1] | Structure (SMILES) | IC50
10 | < 0.05 µM | CC(=O)Nc1ccc(-c2ccc(C[C@@H]3NC(=O)[C@H](Cc4ccc(-c5ccccc5)cc4)NC(=O)[C@H](C(C)(C)O)NC(=O)CSC[C@@H](C(=O)NCC(N)=O)NC(=O)[C@H](CC(C)C)NC(=O)[C@H](Cc4ccc(O)cc4)NC(=O)[C@H](C(C)C)NC(=O)[C@@H]4CCCN4C(=O)[C@H](C(C)C)NC(=O)[C@@H](CCCNC(=N)N)NC(=O)[C@H](CC(=O)O)NC(=O)[C@H](Cc4ccccn4)NC(=O)CN(C)C3=O)cc2)cc1 [Example 175] ({CH2CO}-[Val(3-OH)][Bip][Bip(4'-NHAc)][Sar][2Pal]D[dR]VPVYLCG-NH2; thioether N-13) | –
11 | < 0.05 µM | CC[C@H](C)[C@@H]1NC(=O)[C@@H](CCCNC(=N)N)NC(=O)[C@H](CC(=O)O)NC(=O)[C@H](Cc2cnc[nH]2)NC(=O)CN(C)C(=O)[C@H](Cc2ccc(-c3ccc(NC(=O)c4ccc(CC(=O)O)cc4)cc3)cc2)NC(=O)[C@H](Cc2ccc(-c3ccc(C(=O)O)cc3)cc2)NC(=O)[C@H](C(C)(C)C)NC(=O)CSC[C@@H](C(=O)NCC(N)=O)NC(=O)[C@H](CC(C)C)NC(=O)[C@H](Cc2cnc[nH]2)NC(=O)[C@H](C(C)C)NC(=O)[C@@H]2CCCN2C1=O [Example 486] ({CH2CO}-[Tle][Bip(4'-COOH)][Bip(4'-NHCO-C6H4-4-CH2COOH)][Sar]HD[dR]IPVHLCG-NH2; thioether N-13) | –
12 | < 0.05 µM | CC(=O)Nc1ccc(-c2ccc(C[C@@H]3NC(=O)[C@H](Cc4ccc(-c5ccccc5)cc4)NC(=O)[C@H](CN4CCOCC4)NC(=O)CSC[C@@H](C(=O)N[C@@H](CCCCN)C(=O)O)NC(=O)[C@H](CC(C)C)NC(=O)[C@H](CCCNC(=N)N)NC(=O)[C@H](C(C)C)NC(=O)[C@@H]4CCCN4C(=O)[C@H](C(C)C)NC(=O)[C@@H](CCCNC(=N)N)NC(=O)[C@H](CC(=O)O)NC(=O)[C@@H]4CCCN4C(=O)CN(C)C3=O)cc2)cc1 [Example 169] ({CH2CO}-[Ala(morpholin-4-yl)][Bip][Bip(4'-NHAc)][Sar]PD[dR]VPVRLCK-OH; thioether N-13) | –
13 | 0.05 to 0.2 µM | CC(C)C[C@@H]1NC(=O)[C@H](Cc2ccc(O)cc2)NC(=O)[C@H](C(C)C)NC(=O)[C@@H]2CCCN2C(=O)[C@H](C(C)C)NC(=O)[C@H](CCCNC(=N)N)NC(=O)[C@H](CC(=O)O)NC(=O)[C@@]2(C)CCCN2C(=O)CN(C)C(=O)[C@H](Cc2ccc(-c3ccccc3)cc2)NC(=O)[C@H](Cc2ccc(-c3ccccc3)cc2)NC(=O)[C@H](CN2CCOCC2)NC(=O)CSC[C@@H](C(=O)NCC(N)=O)NC1=O [Example 101] ({CH2CO}-[Ala(morpholin-4-yl)][Bip][Bip][Sar][d(αMeP)]DRVPVYLCG-NH2; thioether N-13) | –
14 | 0.05 to 0.2 µM | CC(C)C[C@@H]1NC(=O)[C@H](Cc2cccs2)NC(=O)[C@H](C(C)C)NC(=O)[C@@H]2CCCN2C(=O)[C@H](C(C)C)NC(=O)[C@@H](CCCNC(=N)N)NC(=O)[C@H](CC(=O)O)NC(=O)[C@H](Cc2ccccn2)NC(=O)CN(C)C(=O)[C@H](Cc2ccc(-c3ccc(NC(=O)c4cccc(OCC(=O)O)c4)cc3)cc2)NC(=O)[C@H](Cc2ccc(-c3ccccc3)cc2)NC(=O)[C@H](CC2CCCCC2)NC(=O)CSC[C@@H](C(=O)NCC(N)=O)NC1=O [Example 616] ({CH2CO}-[Cha][Bip][Bip(4'-NH)](Benzoyl(3-OCH2COOH))[Sar][2Pal]D[dR]VPV[2Thi]LCG-NH2; thioether N-13) | –
15 | 0.05 to 0.2 µM | CC(C)C[C@@H]1NC(=O)[C@H](CCCNC(=N)N)NC(=O)[C@H](C(C)C)NC(=O)[C@@H]2CCCN2C(=O)[C@H](C(C)C)NC(=O)[C@H](CCCNC(=N)N)NC(=O)[C@H](CC(=O)O)NC(=O)[C@H](Cc2ccc(O)cc2)NC(=O)CN(C)C(=O)[C@H](Cc2ccc(-c3ccccc3)cc2)NC(=O)[C@H](Cc2ccc(-c3ccccc3)cc2)NC(=O)[C@H](CN2CCOCC2)NC(=O)CSC[C@@H](C(=O)NCC(N)=O)NC1=O [Example 47] ({CH2CO}-[Ala(morpholin-4-yl)][Bip][Bip][Sar]YDRVPVRLCG-NH2; thioether N-13) | –

From patent US20250145665A1, “MACROCYCLIC PEPTIDES USEFUL AS MODULATORS OF TNF ALPHA” (Bristol-Myers Squibb Company, priority 2023, published 2025)
